From patent publication US9717775B2 (priority 2006, dated 2017)

Assays:
α6/α3β4 nAChR = format: cell-based, rat
α9α10 nAChR = α9α10 nAChR (Rattus norvegicus, UniProt P43144+Q9JLB5); format: cell-based
α6/α3β2β3 nAChR = format: cell-based, rat

α9α10 nAChR, sequence (P43144 26-479 limits assumed): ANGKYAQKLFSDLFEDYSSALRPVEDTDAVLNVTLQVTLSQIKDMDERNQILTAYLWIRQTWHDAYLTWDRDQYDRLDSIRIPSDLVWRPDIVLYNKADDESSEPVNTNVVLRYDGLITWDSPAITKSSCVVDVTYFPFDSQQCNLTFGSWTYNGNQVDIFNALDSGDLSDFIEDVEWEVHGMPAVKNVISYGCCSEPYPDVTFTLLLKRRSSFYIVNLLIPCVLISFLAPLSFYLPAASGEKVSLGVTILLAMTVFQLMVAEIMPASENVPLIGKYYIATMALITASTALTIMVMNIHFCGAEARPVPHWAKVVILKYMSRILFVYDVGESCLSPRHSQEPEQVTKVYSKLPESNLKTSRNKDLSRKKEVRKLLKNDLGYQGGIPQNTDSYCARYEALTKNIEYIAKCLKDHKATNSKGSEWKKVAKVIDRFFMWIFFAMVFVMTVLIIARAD
α9α10 nAChR, sequence (Q9JLB5 25-447 limits assumed): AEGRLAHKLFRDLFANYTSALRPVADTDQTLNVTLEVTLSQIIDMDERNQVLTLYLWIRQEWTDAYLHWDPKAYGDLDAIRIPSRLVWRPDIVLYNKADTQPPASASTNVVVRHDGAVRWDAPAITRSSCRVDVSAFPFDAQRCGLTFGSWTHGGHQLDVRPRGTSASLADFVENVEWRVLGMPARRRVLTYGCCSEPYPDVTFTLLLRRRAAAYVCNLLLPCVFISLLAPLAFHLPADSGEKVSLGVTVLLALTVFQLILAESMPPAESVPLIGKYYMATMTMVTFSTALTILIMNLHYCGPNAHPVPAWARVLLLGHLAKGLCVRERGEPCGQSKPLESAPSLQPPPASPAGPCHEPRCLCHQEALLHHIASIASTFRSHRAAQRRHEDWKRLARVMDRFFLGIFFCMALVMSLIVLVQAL

Substance: α-conotoxin Vc1.1 [reference compound]
- IC50 (α6/α3β4 nAChR): 982 nM
- Hill slope (α9α10 nAChR): 0.702±0.11
- IC50 (α9α10 nAChR): 22.9 nM
- IC50 (α6/α3β2β3 nAChR): 144 nM
